The experiment addresses T1, human TLR7 (Homo sapiens, UniProt Q9NYK1).
T1 sequence (Q9NYK1 27-1049): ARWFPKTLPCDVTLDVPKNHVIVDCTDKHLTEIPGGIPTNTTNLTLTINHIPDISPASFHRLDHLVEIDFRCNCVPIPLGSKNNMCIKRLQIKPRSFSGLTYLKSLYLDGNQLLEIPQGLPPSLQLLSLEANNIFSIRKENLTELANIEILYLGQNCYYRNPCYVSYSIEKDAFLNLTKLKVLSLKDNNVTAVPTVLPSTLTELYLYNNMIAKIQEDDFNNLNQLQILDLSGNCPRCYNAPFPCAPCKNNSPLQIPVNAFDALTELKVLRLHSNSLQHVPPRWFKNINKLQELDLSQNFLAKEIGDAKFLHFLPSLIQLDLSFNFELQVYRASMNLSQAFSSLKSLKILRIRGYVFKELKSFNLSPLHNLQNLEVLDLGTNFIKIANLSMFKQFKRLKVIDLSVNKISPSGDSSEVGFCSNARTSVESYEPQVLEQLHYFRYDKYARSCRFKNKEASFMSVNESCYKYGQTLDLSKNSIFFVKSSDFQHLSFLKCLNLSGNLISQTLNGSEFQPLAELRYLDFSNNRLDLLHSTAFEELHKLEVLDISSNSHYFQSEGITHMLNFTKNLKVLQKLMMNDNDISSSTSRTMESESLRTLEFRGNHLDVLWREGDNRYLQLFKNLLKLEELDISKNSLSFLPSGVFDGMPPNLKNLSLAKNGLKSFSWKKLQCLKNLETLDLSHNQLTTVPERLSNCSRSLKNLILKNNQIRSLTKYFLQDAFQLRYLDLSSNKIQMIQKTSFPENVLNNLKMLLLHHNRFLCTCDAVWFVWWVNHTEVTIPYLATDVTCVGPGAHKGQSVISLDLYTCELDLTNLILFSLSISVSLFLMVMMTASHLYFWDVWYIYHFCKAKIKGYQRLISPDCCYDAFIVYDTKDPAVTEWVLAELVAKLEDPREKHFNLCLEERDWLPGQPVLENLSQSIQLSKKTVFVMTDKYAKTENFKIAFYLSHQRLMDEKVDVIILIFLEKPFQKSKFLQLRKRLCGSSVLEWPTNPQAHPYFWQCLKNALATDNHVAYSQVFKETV
In words: HEK293-Blue-hTLR-7 cells assay (SEAP reporter, R848 stimulation). Type of experiment: cell-based. Particulars: HEK293-Blue-hTLR-7 cells, R848 ligand, 20 hrs incubation; read-out: TLR7 IC50. How it is done:
The following tests were carried out in order to determine the activity of the compounds of formula (I) in HEK293-Blue-hTLR-7/8/9 cells assay.
HEK293-Blue-hTLR-7 Cells Assay:
A stable HEK293-Blue-hTLR-7 cell line was purchased from InvivoGen (Cat. #: hkb-htlr7, San Diego, California, USA). These cells were originally designed for studying the stimulation of human TLR7 by monitoring the activation of NF-κB. A SEAP (secreted embryonic alkaline phosphatase) reporter gene was placed under the control of the IFN-β minimal promoter fused to five NF-κB and AP-1-binding sites. The SEAP was induced by activating NF-κB and AP-1 via stimulating HEK-Blue hTLR7 cells with TLR7 ligands. Therefore the reporter expression was declined by TLR7 antagonist under the stimulation of a ligand, such as R848 (Resiquimod), for incubation of 20 hrs. The cell culture supernatant SEAP reporter activity was determined using QUANTI-Blue™ kit (Cat. #: rep-qb1, Invivogen, San Diego, Ca, USA) at a wavelength of 640 nm, a detection medium that turns purple or blue in the presence of alkaline phosphatase.
HEK293-Blue-hTLR7 cells were incubated at a density of 250,000˜450,000 cells/mL in a volume of 170 μL in a 96-well plate in Dulbecco's Modified Eagle's medium (DMEM) containing 4.5 g/L glucose, 50 U/mL penicillin, […], […], 2 mM L-glutamine, 10% (v/v) heat-inactivated fetal bovine serum with addition of 20 μL test compound in a serial dilution in the presence of final DMSO at 1% and 10 μL of 20 uM R848 in above DMEM, perform incubation under 37° C. in a CO2 incubator for 20 hrs. Then 20 μL of the supernatant from each well was incubated with 180 μL Quanti-blue substrate solution at 37° C. for 2 hrs and the absorbance was read at 620˜655 nm using a spectrophotometer. The signalling pathway that TLR7 activation leads to downstream NF-κB activation has been widely accepted, and therefore similar reporter assay was modified for evaluating TLR7 antagonist.

For orientation: IC50 means the concentration needed to halve the response being measured. Consider `C[C@@H]1CN(c2ccc(C#N)n3nccc23)C[C@H](C(=O)NC2CCCNCC2)O1` (stereo partly drawn) [Example 6, (2R,6R)-N-(azepan-4-yl)-4-(7-cyanopyrazolo[1,5-a]pyridin-4-yl)-6-methyl-morpholine-2-carboxamide], for which the IC50 was determined as 16 nM.

For `C[C@@H]1CN(c2ccc(C#N)n3nccc23)C[C@H](C(=O)NC2CNC[C@H]2F)O1` (stereo partly drawn) [Example 5, Cis-(2R,6R)-4-(7-cyanopyrazolo[1,5-a]pyridin-4-yl)-6-methyl-N-(4-fluoropyrrolidin-3-yl) morpholine-2-carboxamide], the IC50 amounted to 73 nM.

With `C[C@@H]1CN(c2ccc(C#N)n3nccc23)C[C@H](C(=O)NC2CC3CCC(C2)N3)O1` (stereo partly drawn) [Example 23, Exo-(2R,6R)-N-[8-azabicyclo[3.2.1]octan-3-yl]-4-(7-cyanopyrazolo[1,5-a]pyridin-4-yl)-6-methyl-morpholine-2-carboxamide], the IC50 is 27 nM.

In the case of `C[C@@H]1CN(c2ccc(C#N)n3nccc23)C[C@H](C(=O)Nc2ccc(C(=O)N3CCNCC3)cc2)O1` [Example 42, (2R,6R)-4-(7-cyanopyrazolo[1,5-a]pyridin-4-yl)-6-methyl-N-[4-(piperazine-1-carbonyl)phenyl]morpholine-2-carboxamide], the IC50 was found to be 12 nM.

As to `C[C@@H]1CN(c2ccc(C#N)n3nccc23)C[C@H](C(=O)NC23CC(CO)(C2)C3)O1` [Example 15, (2R,6R)-4-(7-cyanopyrazolo[1,5-a]pyridin-4-yl)-N-[3-(hydroxymethyl)-1-bicyclo[1.1.1]pentanyl]-6-methyl-morpholine-2-carboxamide], the half-maximal inhibitory concentration (IC50) is 220 nM.

As to `C[C@@H]1CN(c2ccc(C#N)n3nccc23)C[C@H](C(=O)NC2CC3CCCC(C2)N3)O1` (stereo partly drawn) [Example 14, (2R,6R)-N-(9-azabicyclo[3.3.1]nonan-3-yl)-4-(7-cyanopyrazolo[1,5-a]pyridin-4-yl)-6-methyl-morpholine-2-carboxamide], the IC50 came to 7 nM.

Turning to `C[C@@H]1CN(c2ccc(C#N)n3nccc23)C[C@H](C(=O)NC2(C)CCNCC2)O1` [Example 19, (2R,6R)-4-(7-cyanopyrazolo[1,5-a]pyridin-4-yl)-6-methyl-N-(4-methyl-4-piperidyl)morpholine-2-carboxamide], the IC50 is 99 nM.

On to `C[C@@H]1CN(c2ccc(C#N)n3nccc23)C[C@H](C(=O)NC2CCNCC2)O1` [Example 24, (2R,6R)-4-(7-cyanopyrazolo[1,5-a]pyridin-4-yl)-6-methyl-N-(4-piperidyl)morpholine-2-carboxamide], for which the concentration for half-maximal inhibition (IC50) came to 43 nM.

Regarding `C[C@@H]1CN(c2ccc(C#N)n3nccc23)C[C@H](C(=O)N[C@H]2CNC[C@H]2F)O1` [Example 2, (2R,6R)-4-(7-cyanopyrazolo[1,5-a]pyridin-4-yl)-N-[(3S,4R)-4-fluoropyrrolidin-3-yl]-6-methyl-morpholine-2-carboxamide], the IC50 was 91 nM.

`C[C@@H]1CN(c2ccc(C#N)n3nccc23)C[C@H](C(=O)NC2CC3CC2CN3)O1` (stereo partly drawn) [Example 36, (2R,6R)-N-(2-azabicyclo[2.2.1]heptan-5-yl)-4-(7-cyanopyrazolo[1,5-a]pyridin-4-yl)-6-methyl-morpholine-2-carboxamide]: the IC50 is 130 nM.

As to `C[C@@H]1CN(c2ccc(C#N)n3nccc23)C[C@H](C(=O)N2CC(N)C2)O1` [Example 8, 4-[(2R,6R)-2-(3-aminoazetidine-1-carbonyl)-6-methyl-morpholin-4-yl]pyrazolo[1,5a]pyridine-7-carbonitrile], the IC50 is 190 nM.

`C[C@H]1C[C@@H](N)CN(c2ccc(C#N)n3nccc23)C1` [Example 43, 4-[(3R,5S)-3-amino-5-methyl-1-piperidyl]pyrazolo[1,5-a]pyridine-7-carbonitrile]: the IC50 came out at 34 nM.

For `C[C@@H]1CN(c2ccc(C#N)n3nccc23)C[C@H](C(=O)NC2CN(C)CC23CC3)O1` (stereo partly drawn) [Example 32, (2R,6R)-4-(7-cyanopyrazolo[1,5-a]pyridin-4-yl)-6-methyl-N-(5-methyl-5-azaspiro[2.4]heptan-7-yl)morpholine-2-carboxamide], the IC50 was 31 nM.

In the case of `C[C@@H]1CN(c2ccc(C#N)n3nccc23)C[C@H](C(=O)NC2CC3CCC(C2)N3C)O1` (stereo partly drawn) [Example 33, (2R,6R)-4-(7-cyanopyrazolo[1,5-a]pyridin-4-yl)-6-methyl-N-(8-methyl-8-azabicyclo[3.2.1]octan-3-yl)morpholine-2-carboxamide], the 50% inhibitory concentration (IC50) is 4 nM.

With `C[C@@H]1CN(c2ccc(C#N)n3nccc23)C[C@H](C(=O)NCC2CCNC2)O1` (stereo partly drawn) [Example 40, (2R,6R)-4-(7-cyanopyrazolo[1,5-a]pyridin-4-yl)-6-methyl-N-(pyrrolidin-3-ylmethyl)morpholine-2-carboxamide], the IC50 is 210 nM.

For the molecule `COCCNC(=O)[C@H]1CN(c2ccc(C#N)n3nccc23)C[C@@H](C)O1` [Example 9, (2R,6R)-4-(7-cyanopyrazolo[1,5-a]pyridin-4-yl)-N-(2-methoxyethyl)-6-methyl-morpholine-2-carboxamide], the IC50 came to 650 nM.

Consider `C[C@@H]1CN(c2ccc(C#N)n3nccc23)C[C@H](C(=O)NC2C3CCC2CNC3)O1` (stereo partly drawn) [Example 26, (2R,6R)-N-(3-azabicyclo[3.2.1]octan-8-yl)-4-(7-cyanopyrazolo[1,5-a]pyridin-4-yl)-6-methyl-morpholine-2-carboxamide], for which the concentration for half-maximal inhibition (IC50) is 20 nM.

For `CCC(C)(C)NC(=O)[C@H]1CN(c2ccc(C#N)n3nccc23)C[C@@H](C)O1` [Example 17, (2R,6R)-4-(7-cyanopyrazolo[1,5-a]pyridin-4-yl)-N-(1,1-dimethylpropyl)-6-methyl-morpholine-2-carboxamide], the IC50 was found to be 360 nM.

In the case of `C[C@@H]1CN(c2ccc(C#N)n3nccc23)C[C@H](C(=O)N2CCC3(CCNCC3)CC2)O1` [Example 28, 4-[(2R,6R)-2-(3,9-diazaspiro[5.5]undecane-3-carbonyl)-6-methyl-morpholin-4-yl]pyrazolo[1,5a]pyridine-7-carbonitrile], the half-inhibitory concentration (IC50) was determined as 320 nM.

Values taken from patent publication US12252484B2, “Pyrazolopyridine compounds for the treatment of autoimmune disease” (Hoffmann-La Roche Inc., priority 2018, dated 2025).
